PubChem BioAssay (NCI)
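Assay format: 96-well plates, 48-hour exposure. GI50 marks 50% less growth. Definition used: TGI = concentration required for complete inhibition of growth.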

Assays:
Experiment in all cases: DTP human tumour cell line panel, 48 h
NCI-H23 lung = test system: NCI-H23 lung
NCI-H460 lung = test system: NCI-H460 lung
NCI/ADR-RES ovarian = test system: NCI/ADR-RES ovarian
A498 renal = test system: A498 renal
HOP-92 NSCLC = test system: HOP-92 NSCLC
NCI-H522 lung = test system: NCI-H522 lung
TK-10 renal = test system: TK-10 renal
DU-145 prostate = test system: DU-145 prostate
SF-268 CNS = test system: SF-268 CNS
CCRF-CEM leukemia = test system: CCRF-CEM leukemia

SMILES	GI50 (NCI-H23 lung)	TGI (NCI-H23 lung)	GI50 (NCI-H460 lung)	TGI (NCI-H460 lung)	GI50 (NCI/ADR-RES ovarian)	TGI (NCI/ADR-RES ovarian)	GI50 (A498 renal)	TGI (A498 renal)	GI50 (HOP-92 NSCLC)	TGI (HOP-92 NSCLC)	GI50 (NCI-H522 lung)	TGI (NCI-H522 lung)	GI50 (TK-10 renal)	TGI (TK-10 renal)	GI50 (DU-145 prostate)	TGI (DU-145 prostate)	GI50 (SF-268 CNS)	TGI (SF-268 CNS)	GI50 (CCRF-CEM leukemia)	TGI (CCRF-CEM leukemia)
COc1cnc2c(c1)C(=O)c1c-2n(CCCn2ccnc2)c(=O)c2cc(Cl)ccc12	0.0382 µM	0.505 µM	< 0.01 µM	0.271 µM	0.03 µM	12.5 µM	0.113 µM	0.557 µM	0.0726 µM	56.2 µM	0.0276 µM	10.1 µM	0.744 µM	> 100 µM	0.0432 µM	> 100 µM	0.0343 µM	> 100 µM	< 0.01 µM	> 100 µM
COC(=O)c1ccccc1NC(=O)/C(=N\NC(C)(C)C)C(C#N)c1nc(-c2ccc([N+](=O)[O-])cc2)cs1 (stereo unspecified)		> 100 µM		> 100 µM		> 100 µM		> 100 µM		> 100 µM						> 100 µM		> 100 µM		> 100 µM
CN1CCN(c2ccc3nc(-c4cc(C(C)(C)C)c(O)c(C(C)(C)C)c4)[nH]c3c2)CC1	3.31 µM	10.3 µM	1.99 µM	3.7 µM	5.48 µM	20 µM	7.23 µM	21.2 µM	1.82 µM	6.4 µM	2.11 µM	4.33 µM	4.79 µM	17.2 µM	4.66 µM	16 µM	2.62 µM	7.14 µM	2.22 µM	5.83 µM
COc1cc(OC)c2c(=O)c(O)c(-c3ccc(OC)c(OC)c3)oc2c1		> 100 µM		> 100 µM		17.5 µM		> 100 µM		20.7 µM		> 31.6 µM		> 100 µM		> 100 µM		> 31.6 µM		> 100 µM
O=C1OC(c2ccc(O)c(-c3ccccc3)c2)(c2ccc(O)c(-c3ccccc3)c2)c2c(Cl)c(Cl)c(Cl)c(Cl)c21		> 100 µM		> 100 µM		> 100 µM		> 100 µM		> 100 µM		> 100 µM		> 100 µM		> 100 µM		> 100 µM		> 100 µM
CC(ONC(=O)c1cc(C(F)(F)F)cc(C(F)(F)F)c1)C(=O)Nc1ccc(Cl)cc1 (stereo unspecified)	3.55 µM	10.6 µM	3.5 µM	15 µM	6.2 µM	41.6 µM	3.35 µM	14.5 µM	2.77 µM	7.21 µM	4.14 µM	22.4 µM	5.42 µM	> 75.1 µM	11.5 µM	> 100 µM	5.2 µM	> 67.9 µM	1.09 µM	5.38 µM
CC1(C)N=C(N)N=C(N)N1c1ccc(F)c(C(F)(F)F)c1	2.53 µM	> 100 µM	0.42 µM	> 100 µM	> 83.6 µM	> 100 µM	9.84 µM	> 100 µM	12.4 µM	> 100 µM	3.78 µM	> 100 µM	3.4 µM	> 100 µM	3.18 µM	> 100 µM	0.158 µM	> 100 µM	0.532 µM	> 100 µM
ClCCN(CCCl)c1ccc(-n2cnc3c(Cl)ncnc32)cc1	2.02 µM	3.79 µM	2.14 µM	4.88 µM	4.15 µM	20.3 µM	11.9 µM	24.5 µM	10.9 µM	26.1 µM	3.84 µM	14.9 µM	13 µM	81.9 µM	1.88 µM	3.59 µM	1.81 µM	3.73 µM	3.05 µM	> 100 µM
Cn1c(COC(=O)N2CCCCC2)nc2c(N3CCOCC3)nc(-c3ccccc3)nc21	1.48 µM	3.11 µM	1.58 µM	3.27 µM	1.67 µM	5.72 µM	1.37 µM	2.69 µM	0.492 µM	1.93 µM	0.406 µM	1.76 µM	1.35 µM	2.66 µM	1.01 µM	2.31 µM	1.33 µM	2.71 µM	0.307 µM	1.48 µM
O=C1/C(=C/c2ccccc2Cl)N=C(c2ccccc2)N1Cc1ccco1	40.5 µM	> 100 µM	42.6 µM	> 100 µM	> 100 µM	> 100 µM	24.3 µM	76.6 µM	51.9 µM	> 100 µM	26.2 µM	66.7 µM	> 100 µM	> 100 µM	69.2 µM	> 100 µM	50.2 µM	> 100 µM	5.35 µM	> 100 µM
O=C1C=C(Nc2ccccc2C(=O)CC(=O)C(=O)Nc2cccc(C(F)(F)F)c2)c2ccccc2C1=O		30.5 µM		> 100 µM		49.5 µM		> 100 µM		> 94.3 µM		79.2 µM		> 100 µM		> 100 µM		73.3 µM		44.7 µM
Cc1nn(C(=O)c2ccc(Cl)cc2)c2c1C(c1ccc([N+](=O)[O-])cc1)SC(N)=N2 (stereo unspecified)		> 10 µM		> 10 µM		> 10 µM				> 10 µM		> 10 µM		> 10 µM		> 10 µM		> 10 µM		> 10 µM
C1COC(NC(C2CC2)C2CC2)=N1		> 100 µM		> 100 µM		> 100 µM		> 100 µM		> 100 µM		> 100 µM		> 100 µM		> 100 µM				> 100 µM
Nc1cc(-c2ccccc2)ccc1O	> 100 µM	> 100 µM	> 100 µM	> 100 µM	45 µM	> 100 µM	22.7 µM	> 100 µM	> 100 µM	> 100 µM			> 100 µM	> 100 µM	82.3 µM	> 100 µM	65.5 µM	> 100 µM	23.2 µM	> 100 µM
CCN(CC)CCOc1ccc(/C=C2\CC3C4CCC5=CC(=O)CC[C@]5(C)C4CC[C@]3(C)C2=O)cc1OC (stereo partly specified)	3.17 µM	11 µM	2.85 µM	11.2 µM	3.22 µM	13 µM	1.99 µM	8.48 µM	3.14 µM	7.51 µM	7.15 µM	> 100 µM	2.45 µM	5.59 µM	3.26 µM	16.4 µM	2.34 µM	5.62 µM		
O=S1(=O)CCN(Cc2ccccn2)CC1		> 100 µM		> 100 µM		> 100 µM		> 100 µM		> 100 µM		> 100 µM		> 100 µM		> 100 µM		> 100 µM		
